# In ChEMBL document CHEMBL1152354, “Design, synthesis and identification of novel colchicine-derived immunosuppressant” (Bioorg Med Chem Lett, 2009):
# pIC50: −log10 of the molar value. Activity calls are given as the source filed them. No cut-off for these calls is given here.
# Columns and labels:
# Splenocyte [1] = assay: Immunosuppressive activity in splenocytes assessed as inhibition of mixed lymphocyte reaction; assay type: functional, cell-based; details: for pIC50: Mus musculus, Splenocyte, read-out: IC50
# [2] = Immunosuppressive activity in concanavalin A-activated T cell assessed as inhibition of lymphoproliferation after 3 days by beta-scintillation counting; assay type: functional, cell-based
# [3] = Immunosuppressive activity in LPS-activated B lymphocyte assessed as inhibition of lymphoproliferation after 3 days by beta-scintillation counting; assay type: functional
# Splenocyte [4] = assay: Immunosuppressive activity in mouse splenocytes assessed as inhibition of allogenic mixed lymphocyte reaction; assay type: functional, cell-based
# Mus musculus = assay: Immunosuppressive activity in BALB/c mouse skin allografted C57BL/6 mouse assessed as survival of allograft skin at 1 mg/kg, ip administered daily; assay type: functional; details: route intraperitoneal
# RAW264.7 [5] = assay: Cytotoxicity against mouse RAW264.7 cells at 0.01 to 10 uM; assay type: cell-based; details: raw264.7, 10 µM
# [6] = Cytotoxicity against rat H42E cells assessed as intracellular ATP level; assay type: cell-based; details: read-out: TC50 (the source's name)
# [7] = Cytotoxicity against rat H42E cells assessed as alteration in mitochondrial function by MTT assay; assay type: cell-based; details: read-out: TC50 (the source's name)
# [8] = Cytotoxicity against rat H42E cells assessed as release of alpha-glutathione S transferase; assay type: cell-based; details: read-out: TC50 (the source's name)
# [9] = Antiproliferative activity against rat H42E cells assessed as cell number; assay type: cell-based
# Splenocyte [10] = assay: Ratio of IC50 of drug to IC50 of cyclosporin A for immunosuppressive activity in mouse splenocytes assessed as inhibition of allogenic mixed lymphocyte reaction; assay type: functional
# RAW264.7 [11] = assay: Immunosuppressive activity in mouse RAW264.7 cells assessed as inhibition of LPS-induced NO production; assay type: functional, cell-based
# RAW264.7 [12] = assay: Immunosuppressive activity in mouse RAW264.7 cells assessed as inhibition of LPS-induced NO production at 0.01 to 10 uM; assay type: functional, cell-based
# RAW264.7 [13] = assay: Immunosuppressive activity in mouse RAW264.7 cells assessed as inhibition of LPS-induced iNOS expression; assay type: functional, cell-based
# RAW264.7 [14] = assay: Immunosuppressive activity in mouse RAW264.7 cells assessed as inhibition of LPS-induced TNFalpha expression level in at 0.01 to 10 uM; assay type: functional, cell-based
# RAW264.7 [15] = assay: Immunosuppressive activity in mouse RAW264.7 cells assessed as inhibition of LPS-induced iNOS expression at 0.01 to 10 uM; assay type: functional, cell-based
Structure (SMILES),pIC50 (Splenocyte [1]),pIC50 (Splenocyte [4]),also measured
COc1cc2c(c(OC)c1OC)-c1ccc(SC)c(=O)cc1[C@@H](NC(=O)c1cccc(CO[N+](=O)[O-])c1I)CC2,7.07,,
COc1cc2c(c(OC)c1OC)-c1ccc(SC)c(=O)cc1[C@@H](NC(=O)c1ccc(CO[N+](=O)[O-])cc1)CC2,,7.70,pIC50 [2]: 6.41; pIC50 [3]: 6.46
COc1cc2c(c(OC)c1OC)-c1ccc(SC)c(=O)cc1[C@@H](NC(=O)c1cccc(CO[N+](=O)[O-])c1Cl)CC2,8.10,,pIC50 [2]: 8.52; Survival (Mus musculus): 12.3 days
COc1ccc(C(=O)N[C@H]2CCc3cc(OC)c(OC)c(OC)c3-c3ccc(SC)c(=O)cc32)cc1CO[N+](=O)[O-],7.82,,
COc1cc2c(c(OC)c1OC)-c1ccc(SC)c(=O)cc1[C@@H](NC(=O)c1cccc(CO[N+](=O)[O-])c1C#N)CC2,7.24,,
COc1cc2c(c(OC)c1OC)-c1ccc(SC)c(=O)cc1[C@@H](NC(=O)c1ccc([N+](=O)[O-])c(CO[N+](=O)[O-])c1)CC2,7.26,,
COc1cc2c(c(OC)c1OC)-c1ccc(N(C)C)c(=O)cc1[C@@H](NC(=O)c1cccc(CO[N+](=O)[O-])c1)CC2,,5.00,
COc1cc2c(c(OC)c1OC)-c1ccc(N(C)C)c(=O)cc1[C@@H](NC(=O)CCCO[N+](=O)[O-])CC2,,5.18,
COc1cc2c(c(OC)c1OC)-c1ccc(SC)c(=O)cc1[C@@H](NC(=O)CCCO[N+](=O)[O-])CC2,,6.68,pIC50 [2]: 6.24; pIC50 [3]: 9.00; Activity (RAW264.7 [5]): Non-toxic
COc1cc2c(c(OC)c1OC)-c1ccc(SC)c(=O)cc1[C@@H](NC(=O)c1ccc(Cl)c(CO[N+](=O)[O-])c1)CC2,7.30,,CC50 [6]: 300000 nM; CC50 [7]: 300000 nM; CC50 [8]: 300000 nM; CC50 [9]: 300000 nM
COc1cc2c(c(OC)c1OC)-c1ccc(OC)c(=O)cc1[C@@H](NC(=O)c1ccc(CO[N+](=O)[O-])cc1)CC2,,7.15,Ratio IC50 (Splenocyte [10]): 5
COc1cc2c(c(OC)c1OC)-c1ccc(SC)c(=O)cc1[C@@H](NC(=O)c1ccc(C#N)c(CO[N+](=O)[O-])c1)CC2,7.31,,
COc1ccc(CO[N+](=O)[O-])cc1C(=O)N[C@H]1CCc2cc(OC)c(OC)c(OC)c2-c2ccc(SC)c(=O)cc21,7.11,,
COc1cc2c(c(OC)c1OC)-c1ccc(SC)c(=O)cc1[C@@H](NC(=O)c1cc(CO[N+](=O)[O-])ccc1F)CC2,8.40,,
COc1cc2c(c(OC)c1OC)-c1ccc(OC)c(=O)cc1[C@@H](N(C)C(=O)c1ccc(CO[N+](=O)[O-])cc1)CC2,,< 4.00,
COc1cc2c(c(OC)c1OC)-c1ccc(OC)c(=O)cc1[C@@H](N(C)C(=O)CCCO[N+](=O)[O-])CC2,,5.46,
COc1cc2c(c(OC)c1OC)-c1ccc(N(C)C)c(=O)cc1[C@@H](NC(=O)c1ccc(CO[N+](=O)[O-])cc1)CC2,,5.60,
COc1cc2c(c(OC)c1OC)-c1ccc(SC)c(=O)cc1[C@@H](NC(=O)c1cccc(CO[N+](=O)[O-])c1Br)CC2,7.21,,
COc1cc2c(c(OC)c1OC)-c1ccc(SC)c(=O)cc1[C@@H](NC(=O)c1cccc(CO[N+](=O)[O-])c1)CC2,7.17,7.15,Activity (RAW264.7 [11]): Dose-dependent effect; pIC50 [2]: 9.00; pIC50 [3]: 9.00; inhibition (RAW264.7 [12]): inactive; Activity (RAW264.7 [13]): Dose-dependent effect; Activity (RAW264.7 [5]): Non-toxic; inhibition (RAW264.7 [14]): Active; inhibition (RAW264.7 [15]): inactive
COc1cc2c(c(OC)c1OC)-c1ccc(OC)c(=O)cc1[C@@H](NC(=O)c1cccc(CCl)c1)CC2,,5.20,
COc1cc2c(c(OC)c1OC)-c1ccc(OC)c(=O)cc1[C@@H](NC(=O)c1ccc(CCl)cc1)CC2,,6.49,Ratio IC50 (Splenocyte [10]): 7

Structure (SMILES),pIC50 (Splenocyte [1]),pIC50 (Splenocyte [4]),also measured
C/C=C/C[C@@H](C)[C@@H](O)[C@H]1C(=O)N[C@@H](CC)C(=O)N(C)CC(=O)N(C)[C@@H](CC(C)C)C(=O)N[C@@H](C(C)C)C(=O)N(C)[C@@H](CC(C)C)C(=O)N[C@@H](C)C(=O)N[C@H](C)C(=O)N(C)[C@@H](CC(C)C)C(=O)N(C)[C@@H](CC(C)C)C(=O)N(C)[C@@H](C(C)C)C(=O)N1C [CYCLOSPORINE],,,Survival (Mus musculus): 11.8 days
COc1cc2c(c(OC)c1OC)-c1ccc(SC)c(=O)cc1[C@@H](NC(=O)c1cc(CO[N+](=O)[O-])ccc1C#N)CC2,6.54,,
COc1cc2c(c(OC)c1OC)-c1ccc(SC)c(=O)cc1[C@@H](NC(=O)c1cc(CO[N+](=O)[O-])ccc1I)CC2,6.99,,
COc1cc2c(c(OC)c1OC)-c1ccc(SC)c(=O)cc1[C@@H](NC(=O)c1cccc(CO[N+](=O)[O-])c1-c1ccccc1)CC2,6.36,,
COc1cc2c(c(OC)c1OC)-c1ccc(SC)c(=O)cc1[C@@H](NC(=O)c1cccc(CO[N+](=O)[O-])c1F)CC2,7.19,,
COc1cc2c(c(OC)c1OC)-c1ccc(OC)c(=O)cc1[C@@H](NC(=O)c1cccc(CO[N+](=O)[O-])c1)CC2,,6.60,Ratio IC50 (Splenocyte [10]): 25
COc1cc2c(c(OC)c1OC)-c1ccc(SC)c(=O)cc1[C@@H](NC(=O)c1ccc(Br)c(CO[N+](=O)[O-])c1)CC2,7.05,,
COc1cc2c(c(OC)c1OC)-c1ccc(SC)c(=O)cc1[C@@H](NC(=O)c1ccc(-c3ccccc3)c(CO[N+](=O)[O-])c1)CC2,7.27,,
COc1cc2c(c(OC)c1OC)-c1ccc(SC)c(=O)cc1[C@@H](NC(=O)c1cc(CO[N+](=O)[O-])ccc1Cl)CC2,8.40,,pIC50 [2]: 6.41
COc1cc2c(c(OC)c1OC)-c1ccc(SC)c(=O)cc1[C@@H](NC(=O)c1cccc(CO[N+](=O)[O-])c1[N+](=O)[O-])CC2,8.05,,pIC50 [2]: 8.15
COc1cc2c(c(OC)c1OC)-c1ccc(OC)c(=O)cc1[C@@H](NC(=O)CCCCl)CC2,,5.33,
COc1cc2c(c(OC)c1OC)-c1ccc(OC)c(=O)cc1[C@@H](NC(C)=O)CC2 [COLCHICINE],,5.64,pIC50 [2]: 6.26; pIC50 [3]: 8.14
COc1cc2c(c(OC)c1OC)-c1ccc(SC)c(=O)cc1[C@@H](NC(=O)c1cc(CO[N+](=O)[O-])ccc1[N+](=O)[O-])CC2,7.14,,
COc1cc2c(c(OC)c1OC)-c1ccc(SC)c(=O)cc1[C@@H](NC(=O)c1ccc(F)c(CO[N+](=O)[O-])c1)CC2,7.51,,
COc1cc2c(c(OC)c1OC)-c1ccc(SC)c(=O)cc1[C@@H](NC(=O)c1cc(CO[N+](=O)[O-])ccc1-c1ccccc1)CC2,,,IC50 (Splenocyte [1]; splenocyte): Not Active
COc1cc2c(c(OC)c1OC)-c1ccc(OC)c(=O)cc1[C@@H](N(C)C(=O)c1cccc(CO[N+](=O)[O-])c1)CC2,,< 4.00,
COc1cc2c(c(OC)c1OC)-c1ccc(SC)c(=O)cc1[C@@H](NC(=O)c1cc(CO[N+](=O)[O-])ccc1Br)CC2,7.05,,
COc1cc2c(c(OC)c1OC)-c1ccc(OC)c(=O)cc1[C@@H](NC(=O)CCCO[N+](=O)[O-])CC2,,8.00,Ratio IC50 (Splenocyte [10]): 470
COc1cc2c(c(OC)c1OC)-c1ccc(SC)c(=O)cc1[C@@H](NC(=O)c1ccc(I)c(CO[N+](=O)[O-])c1)CC2,7.17,,
COc1cc2c(c(OC)c1OC)-c1ccc(SC)c(=O)cc1[C@@H](NC(=O)c1cccc(CO[N+](=O)[O-])c1OC)CC2,6.15,,
